The values that follow come from patent publication US4268664A, “Process for the preparation of 1-N-isoseryl- or 1-N-(L-4-amino-2-hydroxybutyryl)-3',4'-dideoxykanamycin B and intermediates thereof” (Zaidan Hojin Biseibutsu Kagaku Kenkyu Kai, priority 1978, dated 1981).

The test system of assay [1] is Sta. aureus Rosenbach FDA 209-P JC-1. Description: Antibacterial activity (MIC), serial dilution method. It counts as cell-based. The following applies: Staphylococcus aureus, FDA209; nutrient agar, 37° C., 20 hours.
The next assay concerns Sta. aureus Smith S-424. Described as above. It counts as cell-based. Conditions: Staphylococcus aureus, SMITHS424; nutrient agar, 37° C., 20 hours.
A further assay concerns Sta. aureus No. 26. The description is as above. It counts as cell-based. The following applies: Staphylococcus aureus, nutrient agar, 37° C., 20 hours.
The subject of the next assay is Sta. aureus ApO-1. The assay is described as above. It counts as cell-based. Conditions: Staphylococcus aureus, APO1; nutrient agar, 37° C., 20 hours.
The next assay has as its system Sta. aureus N-0089. The description is as above. It is filed as cell-based. The following applies: Staphylococcus aureus, N0089; nutrient agar, 37° C., 20 hours.
Assay [2] has as its system Sta. epidermidis ATCC 14990. Described as above. It is filed as cell-based. The following applies: Staphylococcus epidermidis, ATCC14990; nutrient agar, 37° C., 20 hours.
The next assay concerns Sta. epidermidis 109. The description is as above. It is filed as cell-based. The following applies: Staphylococcus epidermidis, nutrient agar, 37° C., 20 hours.
For another assay, the system named is Str. faecalis ATCC 8043. Described as above. It counts as cell-based. Conditions: Enterococcus faecalis, ATCC8043; nutrient agar, 37° C., 20 hours.
The subject of another assay is B. subtilis ATCC 6633. The description is as above. It is filed as cell-based. The following applies: Bacillus subtilis, ATCC6633; nutrient agar, 37° C., 20 hours.
For the next assay, the system named is B. anthracis No. 119. Description: microbe, parasite or virus in culture. It is filed as cell-based. The following applies: Bacillus anthracis, NO.119, 20 h.
Assay [3] concerns E. coli (M) Cast. & Chalm.NIHJ JC-2. Description: Antibacterial activity (MIC), serial dilution method. It is filed as cell-based. Conditions: Escherichia coli, NIHJJC2, 20 h.
The next assay deals with E. coli No. 29. The assay is described as above. It counts as cell-based. Conditions: Escherichia coli, nutrient agar, 37° C., 20 hours.
The next assay deals with E. coli W 677(A-20684). The assay is described as above. It counts as cell-based. Conditions: Escherichia coli; nutrient agar, 37° C., 20 hours. The method, then: (§1) Antimicrobial spectra of 1-N-(L-isoseryl)- and 1-N-(L-4-amino-2-hydroxybutyryl)-3',4'-dideoxy-3',4'-didehydrokanamycin B (1-AHP-eno-DKB and 1-AHB-eno-DKB) are shown in the following table together with that of 1-N-(L-4-amino-2-hydroxybutyryl)-3',4'-dideoxykanamycin B (1-AHB-DKB).
(§2) The minimum inhibitory concentrations (mcg/ml) of the compounds tested against various microorganisms were determined according to a serial dilution method using nutrient agar medium at 37° C., the estimation being effected after 20 hours-incubation.

The test system of the next assay is Sal. species D-0001. The description is as above. It is filed as cell-based. Conditions: nutrient agar, 37° C., 20 hours. How it is done: as §1, §2
A further assay has as its system Sal. species D-0006. The description is as above. It counts as cell-based. Conditions: nutrient agar, 37° C., 20 hours. How it is done: as §1, §2
The subject of the next assay is Sal. species D-0029. The description is as above. Conditions: nutrient agar, 37° C., 20 hours. It counts as cell-based. How it is done: as §1, §2
Assay [4] has as its system E. coli JR 66/W 677(A-20683). The assay is described as above. It is filed as cell-based. The following applies: Escherichia coli, 20 h.
Another assay concerns E. coli A-0001. The description is as above. It counts as cell-based. The following applies: Escherichia coli, A0001; nutrient agar, 37° C., 20 hours.
The next assay deals with E. coli A-0003. The description is as above. It is filed as cell-based. Conditions: Escherichia coli, A0003; nutrient agar, 37° C., 20 hours.
The next assay deals with Sal. typhi 0-901-W. The description is as above. It counts as cell-based. The following applies: Salmonella enterica, 20 h.
The subject of a further assay is Sal. typhimurium LT-2. Described as above. It counts as cell-based. Conditions: Salmonella enterica, 20 h.
Assay [5] relates to Sal. enteritidis No. 11(T-okai). The description is as above. It is filed as cell-based. The following applies: Salmonella enterica, 20 h.
Assay [6] has as its system Shigella dysenteriae Shigae. In words: microbe, parasite or virus in culture. It counts as cell-based. The following applies: 20 h.
The subject of a further assay is Kleb. pneumoniae. Description: Antibacterial activity (MIC), serial dilution method. It counts as cell-based. Conditions: Klebsiella pneumoniae; nutrient agar, 37° C., 20 hours; read-out: MIC.
For assay [7], the system named is Kleb. pneumoniae 22# 3038 (A-20680). The assay is described as above. It counts as cell-based. The following applies: Klebsiella pneumoniae; nutrient agar, 37° C., 20 hours; read-out: MIC.
The subject of another assay is Pro. morganii K-ono. Described as above. It counts as cell-based. Conditions: Morganella morganii; nutrient agar, 37° C., 20 hours.
A further assay concerns Pro. vulgaris OX19. Described as above. The following applies: Proteus vulgaris, nutrient agar, 37° C., 20 hours. It is filed as cell-based.
The next assay relates to Pro. vulgaris J-0001. The description is as above. It counts as cell-based. Conditions: Proteus vulgaris, J0001, 20 h.
The subject of the next assay is Pro. rettgelli J-0026. The description is as above. Conditions: 20 h. It counts as cell-based.
The subject of a further assay is Pro. mirabilis J-0010. The assay is described as above. It is filed as cell-based. Conditions: Proteus mirabilis, J0010, 20 h.
In another assay the test system is Serra. marcescens No. 1. The description is as above. Conditions: Serratia marcescens, nutrient agar, 37° C., 20 hours. It counts as cell-based.
Another assay has as its system Serra. marcescens No. 2. Described as above. It is filed as cell-based. Conditions: Serratia marcescens, nutrient agar, 37° C., 20 hours.
Another assay has as its system Serra. marcescens I-0043. Described as above. It counts as cell-based. Conditions: Serratia marcescens, I0043, 20 h.
The next assay has as its system Ps. aeruginosa IAM-1007. The description is as above. It counts as cell-based. Conditions: Pseudomonas aeruginosa, IAM1007, 20 h.
For another assay, the system named is Ps. aeruginosa NC-5. The description is as above. It is filed as cell-based. Conditions: Pseudomonas aeruginosa, NC5, 20 h.
A further assay has as its system Ps. aeruginosa E-2. Described as above. It is filed as cell-based. Conditions: Pseudomonas aeruginosa, E2, 20 h.
Assay [8] concerns Ps. aeruginosa IID 1210 (IFO 3455). Described as above. It counts as cell-based. The following applies: Pseudomonas aeruginosa, 20 h.
The subject of another assay is Ps. aeruginosa M-0002. The assay is described as above. The following applies: Pseudomonas aeruginosa, M0002; nutrient agar, 37° C., 20 hours; read-out: MIC. It is filed as cell-based.
A further assay concerns Ps. aeruginosa M-0032. The description is as above. It is filed as cell-based. Conditions: Pseudomonas aeruginosa, M0032, 20 h.
For a further assay, the system named is Ps. aeruginosa M-0148. The assay is described as above. It counts as cell-based. The following applies: Pseudomonas aeruginosa, M0148, 20 h.
Assay [9] concerns drug-resistant microbial strains including Pseudomonas aeruginosa. Conditions: cited from earlier work.
For assay [10], the system named is kanamycin-resistant microbial strains including Pseudomonas aeruginosa. Conditions: cited from earlier work.

Each structure is given as a SMILES string. ≈ marks a conversion by molar mass, not a printed value.

As for `NCCC(O)C(=O)NC1CC(N)C(OC2OC(CN)CCC2N)C(O)C1OC1OC(CO)C(O)C(N)C1O` [1-AHB-DKB, 1-N-(L-4-amino-2-hydroxybutyryl)-3',4'-dideoxykanamycin B], the MIC in assay [1] is 0.05 µg/mL (≈ 0.0905 µM); against Sta. aureus Smith S-424 it was 0.39 µg/mL (≈ 0.706 µM); in the assay with Sta. aureus No. 26, 0.78 µg/mL (≈ 1.41 µM); with Sta. aureus ApO-1 it was 0.2 µg/mL (≈ 0.362 µM); against Sta. aureus N-0089 it was 0.39 µg/mL (≈ 0.706 µM); in assay [2] it was 0.1 µg/mL (≈ 0.181 µM). Also, the MIC was determined as 0.2 µg/mL (≈ 0.362 µM) against Sta. epidermidis 109; 50 µg/mL (≈ 90.5 µM) in the assay with Str. faecalis ATCC 8043; 0.1 µg/mL (≈ 0.181 µM) in the assay on B. subtilis ATCC 6633; 0.1 µg/mL (≈ 0.181 µM) in the assay with B. anthracis No. 119; 1.56 µg/mL (≈ 2.82 µM) in assay [3]; 3.13 µg/mL (≈ 5.66 µM) with E. coli No. 29. In addition, the MIC stood at 0.2 µg/mL (≈ 0.362 µM) against E. coli W 677(A-20684); 1.56 µg/mL (≈ 2.82 µM) against Sal. species D-0001; 1.56 µg/mL (≈ 2.82 µM) in the assay on Sal. species D-0006; 3.13 µg/mL (≈ 5.66 µM) in the assay on Sal. species D-0029; 1.56 µg/mL (≈ 2.82 µM) in [4]; 3.13 µg/mL (≈ 5.66 µM) against E. coli A-0001. In addition, the MIC was 3.13 µg/mL (≈ 5.66 µM) in the assay on E. coli A-0003; 0.39 µg/mL (≈ 0.706 µM) against Sal. typhi 0-901-W; 1.56 µg/mL (≈ 2.82 µM) against Sal. typhimurium LT-2; 1.56 µg/mL (≈ 2.82 µM) in [5]; 0.78 µg/mL (≈ 1.41 µM) in [6]; 0.78 µg/mL (≈ 1.41 µM) in the assay on Kleb. pneumoniae. The MIC was determined as 0.78 µg/mL (≈ 1.41 µM) in assay [7]; 3.13 µg/mL (≈ 5.66 µM) with Pro. morganii K-ono; 3.13 µg/mL (≈ 5.66 µM) against Pro. vulgaris OX19; 1.56 µg/mL (≈ 2.82 µM) against Pro. vulgaris J-0001; 6.25 µg/mL (≈ 11.3 µM) in the assay with Pro. rettgelli J-0026; 1.56 µg/mL (≈ 2.82 µM) in the assay on Pro. mirabilis J-0010. Besides, the MIC with Serra. marcescens No. 1 is 3.13 µg/mL (≈ 5.66 µM); against Serra. marcescens No. 2, 3.13 µg/mL (≈ 5.66 µM); in the assay with Serra. marcescens I-0043, 1.56 µg/mL (≈ 2.82 µM); in the assay with Ps. aeruginosa IAM-1007 it was 1.56 µg/mL (≈ 2.82 µM); against Ps. aeruginosa NC-5 it was 6.25 µg/mL (≈ 11.3 µM); against Ps. aeruginosa E-2, 6.25 µg/mL (≈ 11.3 µM). Moreover, the MIC in [8] stood at 12.5 µg/mL (≈ 22.6 µM); in the assay on Ps. aeruginosa M-0002, 3.13 µg/mL (≈ 5.66 µM); in the assay with Ps. aeruginosa M-0032 it was 12.5 µg/mL (≈ 22.6 µM); against Ps. aeruginosa M-0148 it was 6.25 µg/mL (≈ 11.3 µM). Further, the “activity against a wide variety of drug-resistant microbial strains” value in assay [9] is given as “high activity”.

`NCC1CCC(N)C(OC2C(N)CC(N)C(OC3OC(CO)C(O)C(N)C3O)C2O)O1` (stereo not drawn) [3',4'-Dideoxykanamycin B]: the “activity against kanamycin-resistant microbial strains” value in [10] is “high activity”.
